What was measured:
rice = experiment: Test D flooded paddy test; format: in vivo, Oryza sativa; conditions: 250 g ai/ha, applied to paddy water, visual rating after 13 to 14 days, scale 0 to 100 (0 no effect, 100 complete control)
Method in brief: (§1)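 2-leaf plants; flood 3 cm above soil; compound dosed into paddy water; greenhouse 13–14 d; visual rating vs controls, 0–100 (100 = complete control); dash = not tested.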

barnyardgrass [1] = experiment: Test C postemergence; format: in vivo, Echinochloa crusgalli; conditions: 10 days, 0 to 100 scale (0 no effect, 100 complete control)
Method in brief: (§2)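 Visual injury score, 0–100 (100 = complete control), taken 10 days after treatment relative to untreated controls. Pre: directed spray onto soil over sown seeds. Post: foliar spray at one- to two-leaf stage, 2–10 cm. Solvent/surfactant formulation; loam–sand soil; greenhouse.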

corn [2] = experiment: Test C preemergence; format: in vivo, Zea mays; conditions: preemergence, 0 to 100 scale (0 no effect, 100 complete control)
Method in brief: as §2

barnyardgrass [3] = experiment: Test C preemergence; format: in vivo, Echinochloa crusgalli; conditions: preemergence, 0 to 100 scale (0 no effect, 100 complete control)
Method in brief: as §2

sedge, umbrella = experiment: Test D flooded paddy test; format: in vivo, Cyperus difformis; conditions: 250 g ai/ha, applied to paddy water, visual rating after 13 to 14 days, scale 0 to 100 (0 no effect, 100 complete control)
Method in brief: as §1

corn [4] = experiment: Test C postemergence; format: in vivo, Zea mays; conditions: 10 days, 0 to 100 scale (0 no effect, 100 complete control)
Method in brief: as §2

kochia [5] = experiment: Test C preemergence; format: in vivo, Bassia scoparia; conditions: preemergence, 0 to 100 scale (0 no effect, 100 complete control)
Method in brief: as §2

oat, wild [6] = experiment: Test C preemergence; format: in vivo, Avena fatua; conditions: preemergence, 0 to 100 scale (0 no effect, 100 complete control)
Method in brief: as §2

wheat [7] = experiment: Test C postemergence; format: in vivo, Triticum aestivum; conditions: 10 days, 0 to 100 scale (0 no effect, 100 complete control)
Method in brief: as §2

kochia [8] = experiment: Test C postemergence; format: in vivo, Bassia scoparia; conditions: 10 days, 0 to 100 scale (0 no effect, 100 complete control)
Method in brief: as §2

pigweed, palmer [9] = experiment: Test C preemergence; format: in vivo, Amaranthus palmeri; conditions: preemergence, 0 to 100 scale (0 no effect, 100 complete control)
Method in brief: as §2

horseweed = experiment: Test C postemergence; format: in vivo, Erigeron canadensis; conditions: 10 days, 0 to 100 scale (0 no effect, 100 complete control)
Method in brief: as §2

ducksalad = experiment: Test D flooded paddy test; format: in vivo, Heteranthera limosa; conditions: 250 g ai/ha, applied to paddy water, visual rating after 13 to 14 days, scale 0 to 100 (0 no effect, 100 complete control)
Method in brief: as §1

ragweed [10] = experiment: Test C postemergence; format: in vivo, Ambrosia artemisiifolia; conditions: 10 days, 0 to 100 scale (0 no effect, 100 complete control)
Method in brief: as §2

ryegrass, Italian [11] = experiment: Test C postemergence; format: in vivo, Lolium multiflorum; conditions: 10 days, 0 to 100 scale (0 no effect, 100 complete control)
Method in brief: as §2

blackgrass [12] = experiment: Test C postemergence; format: in vivo, Alopecurus myosuroides; conditions: 10 days, 0 to 100 scale (0 no effect, 100 complete control)
Method in brief: as §2

galium = experiment: Test C postemergence; format: in vivo, Galium aparine; conditions: 10 days, 0 to 100 scale (0 no effect, 100 complete control)
Method in brief: as §2

ragweed [13] = experiment: Test C preemergence; format: in vivo, Ambrosia artemisiifolia; conditions: preemergence, 0 to 100 scale (0 no effect, 100 complete control)
Method in brief: as §2

blackgrass [14] = experiment: Test C preemergence; format: in vivo, Alopecurus myosuroides; conditions: preemergence, 0 to 100 scale (0 no effect, 100 complete control)
Method in brief: as §2

pigweed, palmer [15] = experiment: Test C postemergence; format: in vivo, Amaranthus palmeri; conditions: 10 days, 0 to 100 scale (0 no effect, 100 complete control)
Method in brief: as §2

oat, wild [16] = experiment: Test C postemergence; format: in vivo, Avena fatua; conditions: 10 days, 0 to 100 scale (0 no effect, 100 complete control)
Method in brief: as §2

green foxtail [17] = experiment: Test C preemergence; format: in vivo, Setaria viridis; conditions: preemergence, 0 to 100 scale (0 no effect, 100 complete control)
Method in brief: as §2

soybean [18] = experiment: Test C preemergence; format: in vivo, Glycine max; conditions: preemergence, 0 to 100 scale (0 no effect, 100 complete control)
Method in brief: as §2

green foxtail [19] = experiment: Test C postemergence; format: in vivo, Setaria viridis; conditions: 10 days, 0 to 100 scale (0 no effect, 100 complete control)
Method in brief: as §2

soybean [20] = experiment: Test C postemergence; format: in vivo, Glycine max; conditions: 10 days, 0 to 100 scale (0 no effect, 100 complete control)
Method in brief: as §2

wheat [21] = experiment: Test C preemergence; format: in vivo, Triticum aestivum; conditions: preemergence, 0 to 100 scale (0 no effect, 100 complete control)
Method in brief: as §2

barnyardgrass [22] = experiment: Test D flooded paddy test; format: in vivo, Echinochloa crus-galli; conditions: 250 g ai/ha, applied to paddy water, visual rating after 13 to 14 days, scale 0 to 100 (0 no effect, 100 complete control)
Method in brief: as §1

ryegrass, Italian [23] = experiment: Test C preemergence; format: in vivo, Lolium multiflorum; conditions: preemergence, 0 to 100 scale (0 no effect, 100 complete control)
Method in brief: as §2

For `CC(C)Oc1ncn(-c2cccc(C(=O)N3C[C@H](C)Oc4c(Cl)cccc43)c2)n1` [Compound 312], the “Plant response rating, Rice (Flood)” value (rice) was 0, the “Plant response rating, Barnyardgrass” value (barnyardgrass [1]; 500 g ai/ha, postemergence) was 10 and the “Plant response rating, Barnyardgrass” value (barnyardgrass [1]; Postemergence, 125 g ai/ha) was 10. The “Corn plant response rating” value (corn [2]; 500 g ai/ha) was 10, the “Corn plant response rating” value (corn [2]; Test C, 125 g ai/ha) was 0 and the “Barnyardgrass plant response rating” value (barnyardgrass [3]; 500 g ai/ha) was 40. The “Barnyardgrass plant response rating” value (barnyardgrass [3]; Test C, 125 g ai/ha) was 0, the “Plant response rating, Sedge, Umbrella (Flood)” value (sedge, umbrella) was 0 and the “Plant response rating, Corn” value (corn [4]; 500 g ai/ha, postemergence) was 10. For the same molecule, the “Plant response rating, Corn” value (corn [4]; Postemergence, 125 g ai/ha) was 10, the “Kochia plant response rating” value (kochia [5]; 500 g ai/ha) was 20 and the “Kochia plant response rating” value (kochia [5]; Test C, 125 g ai/ha) was 0. For the same molecule, the “Oat, Wild plant response rating” value (oat, wild [6]; 500 g ai/ha) was 70, the “Oat, Wild plant response rating” value (oat, wild [6]; Test C, 125 g ai/ha) was 0 and the “Plant response rating, Wheat” value (wheat [7]; 500 g ai/ha, postemergence) was 10. The “Plant response rating, Wheat” value (wheat [7]; Postemergence, 125 g ai/ha) was 10, the “Plant response rating, Kochia” value (kochia [8]; 500 g ai/ha, postemergence) was 80 and the “Plant response rating, Kochia” value (kochia [8]; Postemergence, 125 g ai/ha) was 20. The “Pigweed, Palmer plant response rating” value (pigweed, palmer [9]; 500 g ai/ha) was 70, the “Pigweed, Palmer plant response rating” value (pigweed, palmer [9]; Test C, 125 g ai/ha) was 20 and the “Plant response rating, Horseweed” value (horseweed; 500 g ai/ha, postemergence) was 0. For the same molecule, the “Plant response rating, Horseweed” value (horseweed; Postemergence, 125 g ai/ha) was 0, the “Plant response rating, Ducksalad (Flood)” value (ducksalad) was 0 and the “Plant response rating, Ragweed” value (ragweed [10]; 500 g ai/ha, postemergence) was 40. The “Plant response rating, Ragweed” value (ragweed [10]; Postemergence, 125 g ai/ha) was 0, the “Plant response rating, Ryegrass, Italian” value (ryegrass, Italian [11]; 500 g ai/ha, postemergence) was 30 and the “Plant response rating, Ryegrass, Italian” value (ryegrass, Italian [11]; Postemergence, 125 g ai/ha) was 30. For the same molecule, the “Plant response rating, Blackgrass” value (blackgrass [12]; 500 g ai/ha, postemergence) was 40, the “Plant response rating, Blackgrass” value (blackgrass [12]; Postemergence, 125 g ai/ha) was 0 and the “Plant response rating, Galium” value (galium; 500 g ai/ha, postemergence) was 80. The “Plant response rating, Galium” value (galium; Postemergence, 125 g ai/ha) was 60, the “Ragweed plant response rating” value (ragweed [13]; 500 g ai/ha) was 0 and the “Ragweed plant response rating” value (ragweed [13]; Test C, 125 g ai/ha) was 0. For the same molecule, the “Blackgrass plant response rating” value (blackgrass [14]; 500 g ai/ha) was 80, the “Blackgrass plant response rating” value (blackgrass [14]; Test C, 125 g ai/ha) was 50 and the “Plant response rating, Pigweed, Palmer” value (pigweed, palmer [15]; 500 g ai/ha, postemergence) was 50. The “Plant response rating, Pigweed, Palmer” value (pigweed, palmer [15]; Postemergence, 125 g ai/ha) was 10, the “Plant response rating, Oat, Wild” value (oat, wild [16]; 500 g ai/ha, postemergence) was 0 and the “Plant response rating, Oat, Wild” value (oat, wild [16]; Postemergence, 125 g ai/ha) was 0. The “Foxtail, Green plant response rating” value (green foxtail [17]; 500 g ai/ha) was 90, the “Foxtail, Green plant response rating” value (green foxtail [17]; Test C, 125 g ai/ha) was 80 and the “Soybean plant response rating” value (soybean [18]; 500 g ai/ha) was 10. For the same molecule, the “Soybean plant response rating” value (soybean [18]; Test C, 125 g ai/ha) was 0, the “Plant response rating, Foxtail, Green” value (green foxtail [19]; 500 g ai/ha, postemergence) was 20 and the “Plant response rating, Foxtail, Green” value (green foxtail [19]; Postemergence, 125 g ai/ha) was 0. For the same molecule, the “Plant response rating, Soybean” value (soybean [20]; 500 g ai/ha, postemergence) was 100, the “Plant response rating, Soybean” value (soybean [20]; Postemergence, 125 g ai/ha) was 80 and the “Wheat plant response rating” value (wheat [21]; 500 g ai/ha) was 10. For the same molecule, the “Wheat plant response rating” value (wheat [21]; Test C, 125 g ai/ha) was 0, the “Plant response rating, Barnyardgrass (Flood)” value (barnyardgrass [22]) was 0 and the “Ryegrass, Italian plant response rating” value (ryegrass, Italian [23]; 500 g ai/ha) was 80. For the same molecule, the “Ryegrass, Italian plant response rating” value (ryegrass, Italian [23]; Test C, 125 g ai/ha) was 70.

Reference: patent publication US20260262643A1, “HERBICIDAL BENZOXAZINES” (FMC CORPORATION, priority 2022, published 2026)
